Test results published in the NIST ThermoML archive (doi:10.1016/j.jct.2005.09.005).

Test: molar heat capacity at constant pressure
Conditions: 101.33 kPa, Vacuum adiabatic calorimetry

[2H]O[2H] [water-d2]
molar heat capacity at constant pressure [J/K/mol]
Conditions	Crystal	Liquid
155.87 K	26.52	–
158.32 K	26.94	–
160 K	27.2	–
160.81 K	27.33	–
163.26 K	27.73	–
165.71 K	28.13	–
168.15 K	28.55	–
170 K	28.83	–
170.6 K	28.97	–
173.05 K	29.33	–
175.5 K	29.73	–
177.94 K	30.14	–
180 K	30.47	–
180.39 K	30.54	–
182.83 K	30.96	–
185.28 K	31.33	–
187.72 K	31.71	–
190 K	32.09	–
190.17 K	32.11	–
192.61 K	32.48	–
195.05 K	32.9	–
197.5 K	33.29	–
199.99 K	33.7	–
200 K	33.7	–
202.44 K	34.08	–
204.88 K	34.48	–
207.33 K	34.88	–
210 K	35.29	–
210.91 K	35.46	–
213.05 K	35.74	–
215.49 K	36.17	–
217.93 K	36.56	–
220 K	36.86	–
220.38 K	36.96	–
222.82 K	37.34	–
225.26 K	37.72	–
227.71 K	38.06	–
230 K	38.45	–
230.15 K	38.5	–
232.58 K	38.89	–
235.03 K	39.22	–
237.47 K	39.55	–
239.91 K	39.99	–
240 K	40.05	–
242.35 K	40.38	–
244.78 K	40.92	–
247.23 K	41.27	–
249.73 K	41.6	–
250 K	41.64	–
252.17 K	41.99	–
254.61 K	42.32	–
257.04 K	42.71	–
257.41 K	42.2	–
259.48 K	43.1	–
260 K	43.16	–
261.91 K	43.48	–
262.39 K	43.37	–
264.34 K	43.87	–
266.76 K	44.33	–
269.18 K	44.87	–
270 K	44.55	–
271.59 K	45.53	–
273.99 K	47.53	–
274.34 K	–	85.72
276.82 K	45.8	85.38
278.53 K	–	85.14
280 K	–	84.97
282.13 K	–	84.72
285.21 K	–	84.64
286.94 K	–	84.47
289.3 K	–	84.14
290 K	–	84.05
291.67 K	–	83.97
294.02 K	–	83.81
296.38 K	–	83.72
298.15 K	–	83.47
298.72 K	–	83.56
300 K	–	83.39
301.66 K	–	83.39
305.18 K	–	83.14
308.67 K	–	83.08
310 K	–	82.96
312.17 K	–	82.92
315.64 K	–	82.85
319.1 K	–	82.78
320 K	–	82.7
322.54 K	–	82.69
325.97 K	–	82.58
329.39 K	–	82.62
330 K	–	82.52
332.72 K	–	82.55
336.11 K	–	82.57
339.47 K	–	82.65
340 K	–	82.67
342.82 K	–	82.74
346.15 K	–	82.71
350 K	–	82.8
